{"source": "patent US11253517B2", "about": "“Small molecule regulators of steroid receptor coactivators and methods of use thereof” (BAYLOR COLLEGE OF MEDICINE, priority 2016, dated 2022)", "assay_in_all_cases": "Kinase-Glo Luminescent Kinase Assay", "type_in_all_cases": "biochemical", "key": {"[1]": {"target": "T1, AMPK A1 /B1/G2 (Homo sapiens, UniProt Q13131)", "T1 construct": "purchased Promega", "protocol": "(§1) SI-12 was also tested for its ability to disrupt kinase activity. The effects of the compound were tested on a panel of 24 kinases using a Kinase-Glo Luminescent Kinase Assay system (Promega; Madison, Wis.). SI-12 was tested, at concentrations of 1000 nM, 50 nM, and 5 nM, for its ability to interfere with recombinant kinases in the assay system. The amount of ATP to ADP conversion in the presence of SI-12 was compared to a DMSO vehicle control. The values shown in Table 3 represent the percentage of kinase activity compared to a DMSO vehicle control.\n(§2) In Table 3, “−” represents less than 20% inhibition; “+” represents from 20% to 40% inhibition; “++” represents from 40% to 60% inhibition; and “+++” represents greater than 60% inhibition."}, "[2]": {"target": "T2, CAMK4 (Homo sapiens, UniProt Q16566)", "T2 construct": "purchased Promega", "protocol": "as §1, §2"}, "[3]": {"target": "T3, CHK1 (Homo sapiens, UniProt O14757)", "T3 construct": "purchased Promega", "T3 sequence (O14757 1-476)": "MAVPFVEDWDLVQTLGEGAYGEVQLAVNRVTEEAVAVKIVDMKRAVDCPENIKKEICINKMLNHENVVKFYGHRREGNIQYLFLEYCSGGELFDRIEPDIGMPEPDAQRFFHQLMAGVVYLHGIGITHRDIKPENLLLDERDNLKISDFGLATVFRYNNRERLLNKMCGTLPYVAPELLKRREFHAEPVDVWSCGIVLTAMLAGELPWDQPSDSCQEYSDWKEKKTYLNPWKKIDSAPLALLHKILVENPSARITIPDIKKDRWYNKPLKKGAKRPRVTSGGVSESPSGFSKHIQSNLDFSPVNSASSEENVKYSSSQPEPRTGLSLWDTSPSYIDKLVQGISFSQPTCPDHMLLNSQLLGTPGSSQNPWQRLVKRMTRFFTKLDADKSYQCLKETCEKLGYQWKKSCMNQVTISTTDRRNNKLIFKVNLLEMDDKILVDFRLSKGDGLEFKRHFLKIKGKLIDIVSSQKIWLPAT", "protocol": "as §1, §2"}, "[4]": {"target": "T4, CK1a 1 (Homo sapiens, UniProt P48729)", "T4 construct": "purchased Promega", "protocol": "as §1, §2"}, "[5]": {"target": "T5, CK1y1 (Homo sapiens, UniProt Q9HCP0)", "T5 construct": "purchased Promega", "protocol": "as §1, §2"}, "[6]": {"target": "T6, CK2a 1 (Homo sapiens, UniProt P68400)", "T6 construct": "purchased Promega", "protocol": "as §1, §2"}, "[7]": {"target": "T7, DAPK1 (Homo sapiens, UniProt P53355)", "T7 construct": "purchased Promega", "protocol": "as §1, §2"}, "[8]": {"target": "T8, FGFR1 (Homo sapiens, UniProt P11362)", "T8 construct": "purchased Promega", "T8 sequence (P11362 22-822)": "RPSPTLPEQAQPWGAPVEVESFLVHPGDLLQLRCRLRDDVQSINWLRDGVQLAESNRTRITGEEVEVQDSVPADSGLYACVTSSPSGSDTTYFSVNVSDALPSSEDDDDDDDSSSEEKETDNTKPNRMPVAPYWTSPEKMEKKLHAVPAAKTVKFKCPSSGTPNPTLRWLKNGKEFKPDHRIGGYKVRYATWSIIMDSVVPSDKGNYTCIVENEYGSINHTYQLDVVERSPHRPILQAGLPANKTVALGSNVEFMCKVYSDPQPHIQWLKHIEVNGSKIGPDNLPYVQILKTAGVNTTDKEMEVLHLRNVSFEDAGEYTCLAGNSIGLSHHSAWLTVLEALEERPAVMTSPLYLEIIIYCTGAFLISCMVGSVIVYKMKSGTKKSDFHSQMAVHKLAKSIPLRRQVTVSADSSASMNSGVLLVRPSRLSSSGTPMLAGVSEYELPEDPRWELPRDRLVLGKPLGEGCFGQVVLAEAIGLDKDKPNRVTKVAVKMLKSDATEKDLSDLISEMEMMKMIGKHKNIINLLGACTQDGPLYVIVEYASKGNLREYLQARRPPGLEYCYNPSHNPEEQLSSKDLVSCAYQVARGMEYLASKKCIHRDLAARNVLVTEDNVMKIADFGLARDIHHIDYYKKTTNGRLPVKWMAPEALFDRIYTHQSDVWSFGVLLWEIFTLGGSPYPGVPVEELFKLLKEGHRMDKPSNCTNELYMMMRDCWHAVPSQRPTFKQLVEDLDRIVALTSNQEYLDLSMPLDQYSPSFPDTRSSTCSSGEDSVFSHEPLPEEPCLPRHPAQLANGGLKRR", "protocol": "as §1, §2"}, "[9]": {"target": "T9, GSK3B (Homo sapiens, UniProt P49841)", "T9 construct": "purchased Promega", "protocol": "as §1, §2"}, "[10]": {"target": "T10, IRAK4 (Homo sapiens, UniProt Q9NWZ3)", "T10 construct": "purchased Promega", "T10 sequence (Q9NWZ3 1-460)": "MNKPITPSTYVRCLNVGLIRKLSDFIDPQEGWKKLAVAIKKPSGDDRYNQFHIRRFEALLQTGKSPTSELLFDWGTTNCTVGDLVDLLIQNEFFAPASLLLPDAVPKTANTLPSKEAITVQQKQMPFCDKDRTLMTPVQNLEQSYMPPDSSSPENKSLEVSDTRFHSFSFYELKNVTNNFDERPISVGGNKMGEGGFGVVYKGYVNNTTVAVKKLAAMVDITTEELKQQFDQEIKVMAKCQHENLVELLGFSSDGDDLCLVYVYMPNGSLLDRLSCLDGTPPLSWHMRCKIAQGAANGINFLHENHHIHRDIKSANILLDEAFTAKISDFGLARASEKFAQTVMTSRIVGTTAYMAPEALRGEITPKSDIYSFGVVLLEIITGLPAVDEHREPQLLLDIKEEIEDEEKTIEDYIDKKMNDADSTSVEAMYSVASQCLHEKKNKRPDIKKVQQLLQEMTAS", "protocol": "as §1, §2"}, "[11]": {"target": "T11, MINK1 (Homo sapiens, UniProt Q8N4C8)", "T11 construct": "purchased Promega", "protocol": "as §1, §2"}, "[12]": {"target": "T12, P38A (Homo sapiens, UniProt Q16539)", "T12 construct": "purchased Promega", "T12 sequence (Q16539 2-360 limits assumed)": "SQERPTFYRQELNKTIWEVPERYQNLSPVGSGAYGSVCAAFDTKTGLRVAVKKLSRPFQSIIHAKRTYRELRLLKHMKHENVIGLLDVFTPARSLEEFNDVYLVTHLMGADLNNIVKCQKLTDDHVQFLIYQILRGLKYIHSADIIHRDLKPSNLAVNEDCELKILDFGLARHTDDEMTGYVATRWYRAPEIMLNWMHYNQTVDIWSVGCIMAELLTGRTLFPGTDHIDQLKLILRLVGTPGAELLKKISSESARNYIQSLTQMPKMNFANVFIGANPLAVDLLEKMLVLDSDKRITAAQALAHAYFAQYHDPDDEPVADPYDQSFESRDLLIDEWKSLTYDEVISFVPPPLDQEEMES", "protocol": "as §1, §2"}, "[13]": {"target": "T13, PKCa (Homo sapiens, UniProt P17252)", "T13 construct": "purchased Promega", "protocol": "as §1, §2"}, "[14]": {"target": "T14, ROCK1 (Homo sapiens, UniProt Q13464)", "T14 construct": "purchased Promega", "protocol": "as §1, §2"}, "[15]": {"target": "T15, SYK (Homo sapiens, UniProt P43405)", "T15 construct": "purchased Promega", "protocol": "as §1, §2"}}, "data": [{"smiles": "CC(=NNc1nc2cc(F)c(F)cc2n1C)c1ccc(F)cn1", "note": "[SI-12]", "values": [{"measurement": "AMPK A1 /B1/G2 kinase inhibition", "setting": "[1]; 5 nM", "result": "− (less than 20% inhibition)"}, {"measurement": "AMPK A1 /B1/G2 kinase inhibition", "setting": "[1]; 50 nM", "result": "− (less than 20% inhibition)"}, {"measurement": "AMPK A1 /B1/G2 kinase inhibition", "setting": "[1]; 1000 nM", "result": "− (less than 20% inhibition)"}, {"measurement": "CAMK4 kinase inhibition", "setting": "[2]; 5 nM", "result": "− (less than 20% inhibition)"}, {"measurement": "CAMK4 kinase inhibition", "setting": "[2]; 50 nM", "result": "− (less than 20% inhibition)"}, {"measurement": "CAMK4 kinase inhibition", "setting": "[2]; 1000 nM", "result": "− (less than 20% inhibition)"}, {"measurement": "CHK1 kinase inhibition", "setting": "[3]; 5 nM", "result": "− (less than 20% inhibition)"}, {"measurement": "CHK1 kinase inhibition", "setting": "[3]; 50 nM", "result": "− (less than 20% inhibition)"}, {"measurement": "CHK1 kinase inhibition", "setting": "[3]; 1000 nM", "result": "− (less than 20% inhibition)"}, {"measurement": "CK1a 1 kinase inhibition", "setting": "[4]; 5 nM", "result": "− (less than 20% inhibition)"}, {"measurement": "CK1a 1 kinase inhibition", "setting": "[4]; 50 nM", "result": "− (less than 20% inhibition)"}, {"measurement": "CK1a 1 kinase inhibition", "setting": "[4]; 1000 nM", "result": "− (less than 20% inhibition)"}, {"measurement": "CK1y1 kinase inhibition", "setting": "[5]; 5 nM", "result": "− (less than 20% inhibition)"}, {"measurement": "CK1y1 kinase inhibition", "setting": "[5]; 50 nM", "result": "− (less than 20% inhibition)"}, {"measurement": "CK1y1 kinase inhibition", "setting": "[5]; 1000 nM", "result": "− (less than 20% inhibition)"}, {"measurement": "CK2a 1 kinase inhibition", "setting": "[6]; 5 nM", "result": "− (less than 20% inhibition)"}, {"measurement": "CK2a 1 kinase inhibition", "setting": "[6]; 50 nM", "result": "− (less than 20% inhibition)"}, {"measurement": "CK2a 1 kinase inhibition", "setting": "[6]; 1000 nM", "result": "− (less than 20% inhibition)"}, {"measurement": "DAPK1 kinase inhibition", "setting": "[7]; 5 nM", "result": "− (less than 20% inhibition)"}, {"measurement": "DAPK1 kinase inhibition", "setting": "[7]; 50 nM", "result": "− (less than 20% inhibition)"}, {"measurement": "DAPK1 kinase inhibition", "setting": "[7]; 1000 nM", "result": "− (less than 20% inhibition)"}, {"measurement": "FGFR1 kinase inhibition", "setting": "[8]; 5 nM", "result": "+ (from 20% to 40% inhibition)"}, {"measurement": "FGFR1 kinase inhibition", "setting": "[8]; 50 nM", "result": "− (less than 20% inhibition)"}, {"measurement": "FGFR1 kinase inhibition", "setting": "[8]; 1000 nM", "result": "− (less than 20% inhibition)"}, {"measurement": "GSK3B kinase inhibition", "setting": "[9]; 5 nM", "result": "− (less than 20% inhibition)"}, {"measurement": "GSK3B kinase inhibition", "setting": "[9]; 50 nM", "result": "− (less than 20% inhibition)"}, {"measurement": "GSK3B kinase inhibition", "setting": "[9]; 1000 nM", "result": "− (less than 20% inhibition)"}, {"measurement": "IRAK4 kinase inhibition", "setting": "[10]; 5 nM", "result": "− (less than 20% inhibition)"}, {"measurement": "IRAK4 kinase inhibition", "setting": "[10]; 50 nM", "result": "− (less than 20% inhibition)"}, {"measurement": "IRAK4 kinase inhibition", "setting": "[10]; 1000 nM", "result": "− (less than 20% inhibition)"}, {"measurement": "MINK1 kinase inhibition", "setting": "[11]; 5 nM", "result": "− (less than 20% inhibition)"}, {"measurement": "MINK1 kinase inhibition", "setting": "[11]; 50 nM", "result": "− (less than 20% inhibition)"}, {"measurement": "MINK1 kinase inhibition", "setting": "[11]; 1000 nM", "result": "− (less than 20% inhibition)"}, {"measurement": "P38A kinase inhibition", "setting": "[12]; 5 nM", "result": "− (less than 20% inhibition)"}, {"measurement": "P38A kinase inhibition", "setting": "[12]; 50 nM", "result": "− (less than 20% inhibition)"}, {"measurement": "P38A kinase inhibition", "setting": "[12]; 1000 nM", "result": "− (less than 20% inhibition)"}, {"measurement": "PKCa kinase inhibition", "setting": "[13]; 5 nM", "result": "− (less than 20% inhibition)"}, {"measurement": "PKCa kinase inhibition", "setting": "[13]; 50 nM", "result": "− (less than 20% inhibition)"}, {"measurement": "PKCa kinase inhibition", "setting": "[13]; 1000 nM", "result": "− (less than 20% inhibition)"}, {"measurement": "ROCK1 kinase inhibition", "setting": "[14]; 5 nM", "result": "+ (from 20% to 40% inhibition)"}, {"measurement": "ROCK1 kinase inhibition", "setting": "[14]; 50 nM", "result": "+ (from 20% to 40% inhibition)"}, {"measurement": "ROCK1 kinase inhibition", "setting": "[14]; 1000 nM", "result": "+ (from 20% to 40% inhibition)"}, {"measurement": "SYK kinase inhibition", "setting": "[15]; 5 nM", "result": "− (less than 20% inhibition)"}, {"measurement": "SYK kinase inhibition", "setting": "[15]; 50 nM", "result": "− (less than 20% inhibition)"}, {"measurement": "SYK kinase inhibition", "setting": "[15]; 1000 nM", "result": "− (less than 20% inhibition)"}]}]}
